Experimental data as given in patent US20040147574A1, “Isothiazole derivatives” (Pfizer Inc, priority 2003, published 2004).

Molecular target: T1, TβRII kinase (Homo sapiens, UniProt P37173)
T1 construct: cytoplasmic domain of TβRII-amino acids 193-567 with A to V change at 438
T1 sequence (P37173 193-567): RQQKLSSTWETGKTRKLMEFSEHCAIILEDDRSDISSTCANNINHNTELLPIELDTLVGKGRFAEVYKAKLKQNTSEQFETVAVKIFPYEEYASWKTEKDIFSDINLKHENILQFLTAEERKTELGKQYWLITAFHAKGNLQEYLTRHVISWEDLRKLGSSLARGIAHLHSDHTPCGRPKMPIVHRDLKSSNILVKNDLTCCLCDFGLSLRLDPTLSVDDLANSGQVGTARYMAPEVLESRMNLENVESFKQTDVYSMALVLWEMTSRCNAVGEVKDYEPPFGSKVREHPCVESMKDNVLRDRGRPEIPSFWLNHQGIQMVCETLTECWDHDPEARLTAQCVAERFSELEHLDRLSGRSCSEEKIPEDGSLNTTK
Test: TGF-β Type II Receptor (TβRII) kinase assay: phosphorylation of myelin basic protein
Format: biochemical
Conditions: GST-TβRII 27 nanomolar, MBP 3 micromolar, ATP 0.25 micromolar, 90 minutes at room temperature
Method: Phosphorylation of myelin basic protein (MBP) by the TβRII kinase was measured as follows: 80 microliters of MBP (Upstate Biotechnology #13-104) diluted in kinase reaction buffer (KRB) containing 50 mM MOPS, 5 mM MgCl2, pH 7.2 to yield a final concentration of 3 micromolar MBP was added to each well of a Millipore 96-well multiscreen-DP 0.65 micron filtration plate (#MADPNOB50). 20 microliters of inhibitor diluted in KRB was added to appropriate wells to yield the desired final concentration (10-0.03 micromolar). 10 microliters of a mixture of ATP (Sigma #A-5394) and ^33P-ATP (Perkin Elmer #NEG/602H) diluted in KRB was added to yield a final concentration of 0.25 micromolar ATP and 0.02 microcuries of ^33P-ATP per well. 10 microliters of a GST-TβRII fusion protein (glutathione S-transferase at the N-terminal end of the cytoplasmic domain of TβRII-amino acids 193-567 with A to V change at 438) diluted in KRB was added to each well to yield a final concentration of 27 nanomolar GST-TβRII. Plates were mixed and incubated for 90 minutes at room temperature. After the reaction incubation, 100 microliters of cold 20% trichloroacetic acid (Aldrich #25,139-9) was added per well and plates were mixed and incubated for 60 minutes at 4° C. Liquid was then removed from the wells using a Millipore vacuum manifold. Plates were washed once with 200 microliters per well of cold 10% trichloroacetic acid followed by two washes with 100 microliters per well of cold 10% trichloroacetic acid. Plates were allowed to dry overnight at room temperature. 20 microliters of Wallac OptiPhase SuperMix scintillation cocktail was added to each well. Plates were sealed and counted using a Wallac 1450 Microbeta liquid scintillation counter. The potency of inhibitors was determined by their ability to reduce TβRII-mediated phosphorylation of the MBP substrate.

| SMILES | IC50 [µM] |
| --- | --- |
| COc1ccc(CCNC(=O)Nc2snc(OCc3cccnc3)c2C(N)=O)cc1OC [Example 6, 5-{3-[2-(3,4-Dimethoxy-phenyl)-ethyl]-ureido}-3-(pyridin-3-ylmethoxy)-isothiazole-4-carboxylic acid amide] | 0.754 |
| NC(=O)c1c(OCc2cccnc2)nsc1NC(=O)NCCc1cccc(F)c1 [Example 13, 5-{3-[2-(3-Fluoro-phenyl)-ethyl]-ureido}-3-(pyridin-3-ylmethoxy)-isothiazole-4-carboxylic acid amide] | 1.48 |
| NC(=O)c1c(OCc2cccnc2)nsc1NC(=O)NC[C@H]1CCCCCC[C@H]1O [Example 22, (R),(R)-5-[3-(2-Hydroxy-cyclooctylmethyl)-ureido]-3-(pyridin-3-ylmethoxy)-isothiazole-4-carboxylic acid amide] | 0.753 |
| NC(=O)c1c(OCc2cccnc2)nsc1NC(=O)NCCc1cccc(Cl)c1 [Example 9, 5-{3-[2-(3-Chloro-phenyl)-ethyl]-ureido}-3-(pyridin-3-ylmethoxy)-isothiazole-4-carboxylic acid amide] | 2.26 |
| CCN(CC)CCNC(=O)Nc1snc(OCc2cccnc2)c1C(N)=O [Example 17, 5-[3-(2-Diethylamino-ethyl)-ureido]-3-(pyridin-3-ylmethoxy)-isothiazole-4-carboxylic acid amide] | 1.94 |
| CCOc1cc(CCNC(=O)Nc2snc(OCc3cccnc3)c2C(N)=O)ccc1OC [Example 8, 5-{3-[2-(3-Ethoxy-4-methoxy-phenyl)-ethyl]-ureido}-3-(pyridin-3-ylmethoxy)-isothiazole-4-carboxylic acid amide] | 1.97 |
| NC(=O)c1c(OCc2cccnc2)nsc1NC(=O)NCCCN1CCOCC1 [Example 15, 5-[3-(3-Morpholin-4-yl-propyl)-ureido]-3-(pyridin-3-ylmethoxy)-isothiazole-4-carboxylic acid amide] | 0.437 |
| NC(=O)c1c(OCc2cccnc2)nsc1NC(=O)NCCc1ccccc1 [Example 7, 5-(3-Phenethyl-ureido)-3-(pyridin-3-ylmethoxy)-isothiazole-4-carboxylic acid amide] | 0.94 |
| NC(=O)c1c(OCc2cccnc2)nsc1NC(=O)NCCO [Example 23, 5-[3-(2-Hydroxy-ethyl)-ureido]-3-(pyridin-3-ylmethoxy)-isothiazole-4-carboxylic acid amide] | 0.349 |
| NC(=O)c1c(OCc2cccnc2)nsc1NC(=O)NCCN1CCOCC1 [Example 16, 5-[3-(2-Morpholin-4-yl-ethyl)-ureido]-3-(pyridin-3-ylmethoxy)-isothiazole-4-carboxylic acid amide] | 0.855 |
| CC1CCCCN1CCCNC(=O)Nc1snc(OCc2cccnc2)c1C(N)=O (stereo not drawn) [Example 20, 5-{3-[3-(2-Methyl-piperidin-1-yl)-propyl]-ureido}-3-(pyridin-3-ylmethoxy)-isothiazole-4-carboxylic acid amide] | 0.966 |
| CC(Oc1nsc(NC(=O)NCc2ccccn2)c1C(N)=O)c1cccnc1 (stereo not drawn) [Example 25, 3-(1-Pyridin-3-yl-ethoxy)-5-(3-pyridin-2-ylmethyl-ureido)-isothiazole-4-carboxylic acid amide] | 7.39 |
| COc1cccc(OC)c1CNC(=O)Nc1snc(OC(C)c2cccnc2)c1C(N)=O (stereo not drawn) [Example 26, 5-[3-(2,6-Dimethoxy-benzyl)-ureido]-3-(1-pyridin-3-yl-ethoxy)-isothiazole-4-carboxylic acid amide] | 0.502 |
| CCC(O)CNC(=O)Nc1snc(OCc2cccnc2)c1C(N)=O (stereo not drawn) [Example 24, 5-[3-(2-Hydroxy-butyl)-ureido]-3-(pyridin-3-ylmethoxy)-isothiazole-4-carboxylic acid amide] | 0.669 |
| NC(=O)c1c(OCc2cccnc2)nsc1NC(=O)NCCC1=CCCCC1 [Example 3, 5-[3-(2-Cyclohex-1-enyl-ethyl)-ureido]-3-(pyridin-3-ylmethoxy)-isothiazole-4-carboxylic acid amide] | 1.61 |
| NC(=O)c1c(OCc2cccnc2)nsc1NC(=O)NC[C@H]1CCCCC[C@H]1O [Example 21, (R),(R)-5-[3-(2-Hydroxy-cycloheptylmethyl)-ureido]-3-(pyridin-3-ylmethoxy)-isothiazole-4-carboxylic acid amide] | 0.759 |

Continued, values first:

| IC50 [µM] | SMILES |
| --- | --- |
| 2.12 | COc1cccc(CCNC(=O)Nc2snc(OCc3cccnc3)c2C(N)=O)c1 [Example 10, 5-{3-[2-(3-Methoxy-phenyl)-ethyl]-ureido}-3-(pyridin-3-ylmethoxy)-isothiazole-4-carboxylic acid amide] |
| 3.12 | NC(=O)c1c(OCc2cccnc2)nsc1NC(=O)NCCc1ccccc1F [Example 12, 5-{3-[2-(2-Fluoro-phenyl)-ethyl]-ureido}-3-(pyridin-3-ylmethoxy)-isothiazole-4-carboxylic acid amide] |
| 0.457 | CN1CCCC1CCNC(=O)Nc1snc(OCc2cccnc2)c1C(N)=O (stereo not drawn) [Example 19, 5-{3-[2-(1-Methyl-pyrrolidin-2-yl)-ethyl]-ureido}-3-(pyridin-3-ylmethoxy)-isothiazole-4-carboxylic acid amide] |
| 1.6 | Cc1ccc(C)c(CNC(=O)Nc2snc(OCc3cccnc3)c2C(N)=O)c1 [Example 4, 5-[3-(2,5-Dimethyl-benzyl)-ureido]-3-(pyridin-3-ylmethoxy)-isothiazole-4-carboxylic acid amide] |
| 0.71 | CNC(=O)Nc1snc(OC(C)c2cccnc2)c1C(N)=O (stereo not drawn) [Example 27, 5-(3-Methyl-ureido)-3-(1-pyridin-3-yl-ethoxy)-isothiazole-4-carboxylic acid amide] |
| 2.99 | NC(=O)c1c(OCc2cccnc2)nsc1NC(=O)NCCc1ccccc1Cl [Example 11, 5-{3-[2-(2-Chloro-phenyl)-ethyl]-ureido}-3-(pyridin-3-ylmethoxy)-isothiazole-4-carboxylic acid amide] |
| 0.551 | CCOc1ccc(CCNC(=O)Nc2snc(OCc3cccnc3)c2C(N)=O)cc1OC [Example 14, 5-{3-[2-(4-Ethoxy-3-methoxy-phenyl)-ethyl]-ureido}-3-(pyridin-3-ylmethoxy)-isothiazole-4-carboxylic acid amide] |
| 0.801 | CN(C)CCCNC(=O)Nc1snc(OCc2cccnc2)c1C(N)=O [Example 18, 5-[3-(3-Dimethylamino-propyl)-ureido]-3-(pyridin-3-ylmethoxy)-isothiazole-4-carboxylic acid amide] |
